According to PubChem BioAssay (NCI):
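The compound was tested at five concentrations on cells cultured in 96-well plates, with a 48-hour exposure period. The concentration for 50% growth inhibition is given as GI50. Definition used: TGI = concentration required for complete inhibition of growth.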

Legend:
Assay in all cases: NCI-60 cell line screen, 48 h
[1] = system: SK-MEL-2 melanoma
[2] = system: RXF 393 renal
[3] = system: SK-MEL-28 melanoma
[4] = system: MOLT-4 leukemia
[5] = system: NCI-H522 lung
[6] = system: NCI-H23 lung
[7] = system: NCI-H226 lung
[8] = system: HCT-116 colon
[9] = system: HOP-92 NSCLC
[10] = system: OVCAR-4 ovarian

| SMILES | TGI [1] | TGI [2] | TGI [3] | TGI [4] | TGI [5] | TGI [6] | TGI [7] | TGI [8] | TGI [9] | TGI [10] | GI50 [1] | GI50 [2] | GI50 [3] | GI50 [4] | GI50 [5] | GI50 [6] | GI50 [7] | GI50 [8] | GI50 [9] | GI50 [10] |
| --- | --- | --- | --- | --- | --- | --- | --- | --- | --- | --- | --- | --- | --- | --- | --- | --- | --- | --- | --- | --- |
| Cc1c2cc[n+](C)cc2c(C)c2c1sc1ccccc12 | 7.71 µM | 12 µM | 6.15 µM | 5.57 µM | 2.4 µM | 2.29 µM | 2.11 µM | 23.7 µM | 9.75 µM | 11.4 µM | – | – | – | – | – | – | – | – | – | – |
| Cc1ccc([N+](=O)[O-])cc1NC(=O)Nc1cccc(F)c1 | 89.2 µM | 61.2 µM | > 100 µM | > 100 µM | 15.7 µM | > 100 µM | > 100 µM | > 100 µM | 15.2 µM | 51.9 µM | 8.82 µM | 18.4 µM | 19.8 µM | 3.38 µM | 2.64 µM | 2.61 µM | 7.54 µM | 3.53 µM | 3.46 µM | 3.96 µM |
| O=C1c2ccccc2-c2c1c1ccccc1c(=O)n2CCCCNCCCn1c2c(c3ccccc3c1=O)C(=O)c1ccccc1-2 | 15.2 µM | 7.08 µM | 34.8 µM | 0.452 µM | 6.39 µM | 2.53 µM | 3.11 µM | 0.688 µM | 3.45 µM | 15.5 µM | 3.51 µM | 0.33 µM | 2.95 µM | 0.016 µM | 0.361 µM | 0.461 µM | 0.375 µM | 0.00948 µM | 0.994 µM | 0.683 µM |
| COc1ccc2[nH]c(=O)c3c4ccccc4cn3c2c1 | 7.66 µM | 1.09 µM | 2.01 µM | 2.23 µM | 2.44 µM | 6.59 µM | 18 µM | 1.38 µM | 8.37 µM | 2.78 µM | 1.35 µM | 0.312 µM | 0.663 µM | 0.399 µM | 0.576 µM | 0.639 µM | 3.47 µM | 0.351 µM | 2 µM | 0.532 µM |
| Cc1ccc(S(=O)(=O)N[C@H](C(=O)O)c2ccccc2)cc1 | > 100 µM | > 100 µM | > 100 µM | > 100 µM | > 100 µM | > 100 µM | > 100 µM | – | > 100 µM | > 100 µM | – | – | – | – | – | – | – | – | – | – |
| COc1ccc(C(=O)c2cc(OC)c(OC)c(OC)c2)cc1 | > 100 µM | > 100 µM | > 95.8 µM | 20.2 µM | 0.238 µM | > 100 µM | 37.9 µM | > 25.8 µM | > 100 µM | > 100 µM | – | – | – | – | – | – | – | – | – | – |
| O=C(Nc1ccccc1-c1n[nH]c(=S)[nH]c1=O)C(F)(F)F | > 100 µM | > 100 µM | > 100 µM | > 100 µM | > 100 µM | > 100 µM | > 100 µM | > 100 µM | > 100 µM | > 100 µM | – | – | – | – | – | – | – | – | – | – |
| Cc1c(N2CCCC2)cc2c(c1NC(=O)c1ccccc1Cl)C(C)(C)CC2(C)C | 30 µM | 27.5 µM | 33.1 µM | – | 28.4 µM | 28.5 µM | 41.5 µM | 22.8 µM | 24 µM | 33.3 µM | – | – | – | – | – | – | – | – | – | – |
| COc1ccc(C2CC(c3cc(OC)c(OC)c(OC)c3)=NO2)cc1OCCCCOc1cc2c(cc1OC)C(=O)N1CCC[C@H]1C=N2 (stereo partly drawn) | 4.8 µM | 2.72 µM | 4.1 µM | 4.61 µM | 2.28 µM | 3.5 µM | 3.44 µM | 3.89 µM | 10.3 µM | 5.04 µM | 2.03 µM | 1.39 µM | 2.07 µM | 1.85 µM | 0.61 µM | 1.83 µM | 1.67 µM | 1.7 µM | 2.47 µM | 2.07 µM |
| ON/N=C/c1cc2c(cc1Br)OCO2 | > 386 µM | > 386 µM | > 386 µM | > 386 µM | > 386 µM | > 386 µM | > 386 µM | > 386 µM | > 386 µM | – | – | – | – | – | – | – | – | – | – | – |
| O=[N+]([O-])c1ccc(S(=O)(=O)Cc2ccccc2)c([N+](=O)[O-])c1 | 8.62 µM | 3.4 µM | 8.24 µM | – | 2.81 µM | 3.52 µM | 43.3 µM | 3.51 µM | 3.38 µM | 5.77 µM | – | – | – | – | – | – | – | – | – | – |
| CC(C)(C)NNC(=O)/C(=C/c1ccc([N+](=O)[O-])cc1)NC(=O)c1ccccc1 | > 100 µM | > 100 µM | > 100 µM | > 100 µM | 73.3 µM | > 100 µM | 96.5 µM | – | > 100 µM | > 100 µM | – | – | – | – | – | – | – | – | – | – |
| Cc1ccccc1NC(=O)C(=O)C(C#N)c1ccc(Cl)cc1 (stereo not drawn) | > 100 µM | > 100 µM | > 100 µM | > 100 µM | > 100 µM | > 100 µM | > 100 µM | > 100 µM | > 100 µM | – | – | – | – | – | – | – | – | – | – | – |
| CC(NS(=O)(=O)c1ccc([N+](=O)[O-])cc1)C(=O)O (stereo not drawn) | > 100 µM | > 100 µM | > 100 µM | > 100 µM | > 100 µM | > 100 µM | > 100 µM | – | > 100 µM | > 100 µM | – | – | – | – | – | – | – | – | – | – |
